Results published in patent EP3628659A1, “SELENOESTER-CONTAINING COMPOUNDS FOR USE IN THE TREATMENT OF MICROBIAL INFECTIONS OR COLORECTAL CANCER” (Consejo Superior De Investigaciones Científicas, priority 2018, dated 2020).

What was measured:
[1] = test system: Staphylococcus aureus multidrug resistant 272123 clinical isolate (MRSA); assay type: cell-based; conditions: MIC class
Experimental: (§1) The effects exerted by different concentrations of the compounds on bacterial growth in Staphylococcus aureus 25923 ATCC, Staphylococcus aureus multidrug resistant 272123 clinical isolate (MRSA), Escherichia coli AG100 or Escherichia coli AG100 A were tested in 96-well plates. The MIC of selenocompounds was determined according to Clinical and Laboratory Standard Institute (CLSI) guidelines. The solvent used (DMSO) had no antibacterial effect. Alternatively, the MICs of oxacillin of the compounds in MRSA HEMSA 5 were determined by a broth microdilution method in cation-adjusted Mueller-Hinton Broth (MHB II) according to the recommendations of the CLSI. Results were recorded after a 20- or 24-hour incubation at 37°C.

[2] = test system: Colo 320/MDR-LRP multidrug resistant overexpressing ABCB1 (MDR1)-LRP; assay: cells; assay type: cell-based, human; conditions: for IC50: Homo sapiens, 24 h, read-out: Colo 320 Cytotoxicity; for SI (MRC-5/Colo320): quotient of IC50 in MRC-5 and IC50 in Colo-320
Experimental: Cytotoxicity assays in human colonic adenocarcinoma cell lines Colo 205 doxorubicin-sensitive (ATCC-CCL-222) and Colo 320/MDR-LRP multidrug resistant overexpressing ABCB1 (MDR1)-LRP (ATCC-CCL-220.1) were performed following the procedure described by Gajdács et al, 2017, Bioorg Med Chem Lett. 27(4): 797-802. The effects of increasing concentrations of selenium compounds on cell growth were tested in 96-well flat-bottomed microtiter plates. The selectivity of the action towards cancer cells was assessed through the evaluation of cytotoxic activity in a non-tumoral cell line, the MRC-5 human embryonal lung fibroblast cell lines (ATCC CCL-171), as described in Gajdács et al, 2017, Bioorg Med Chem Lett. 27(4): 797-802.
All cell lines were purchased from LGC Promochem, Teddington, UK. The colonic cells were cultured in RPMI 1640 medium supplemented with 10% heat-inactivated fetal bovine serum, 2 mM L-glutamine, 1 mM Na-pyruvate and 100 mM Hepes. The cell lines were incubated at 37°C, in a 5% CO2, 95% air atmosphere. The semi-adherent human colon cancer cells were detached with Trypsin-Versene (EDTA) solution for 5 min at 37°C. Alternatively, MRC-5 cells was cultured in Eagle's Minimal Essential Medium (EMEM, containing 4.5 g/L glucose) supplemented with a non-essential amino acid mixture, a selection of vitamins and 10% heat-inactivated fetal bovine serum. The cell lines were incubated at 37°C, in a 5% CO2, 95% air atmosphere.
The compounds were diluted in a volume of 100 µL of medium. The two-fold serial dilutions of selenocompounds were prepared in 100 µL of RPMI 1640, horizontally. The semi-adherent colonic adenocarcinoma cells were treated with Trypsin-Versene (EDTA) solution. They were adjusted to a density of 2×10^4 cells in 100 µL of RPMI 1640 medium, and were added to each well, with the exception of the medium control wells. The final volume of the wells containing selenocompounds and cells was 200 µL.
The culture plates were incubated at 37°C for 24 h; at the end of the incubation period, 20 µL of MTT (thiazolyl blue tetrazolium bromide, Sigma) solution (from a stock solution of 5 mg/mL) were added to each well. After incubation at 37°C for 4 h, 100 µL of sodium dodecyl sulfate (SDS) (Sigma) solution (10% in 0.01 M HCI) were added to each well and the plates were further incubated at 37°C overnight. Cell growth was determined by measuring the optical density (OD) at 540/630 nm with Multiscan EX ELISA reader (Thermo Labsystems, Cheshire, WA, USA). Inhibition of the cell growth was determined according to the formula below: […] = 100−[(OD sample−OD medium control)/(OD cell control−OD medium control)] × 100 [formula]
Results are expressed in terms of IC50, defined as the inhibitory dose that reduces the growth of the cells exposed to the tested compounds by 50%. Regarding the selectivity, the selectivity indexes (SI) were calculate, being SI the quotient of the IC50 in non-tumoral cells (MRC-5) and the respective cancer cell (Colo-205 or Colo-320). Compound is considered moderately selective when SI < 6 and ≥ 3; and strongly selective when SI ≥ 6.

[3] = test system: Staphylococcus aureus 25923 ATCC; assay: MIC determination (CLSI), S. aureus 25923 ATCC; assay type: cell-based; conditions: MIC class
Experimental: as §1

Escherichia coli AG100 = assay: MIC determination (CLSI), E. coli AG100; assay type: cell-based; conditions: MIC class
Experimental: as §1

Escherichia coli AG100 A = assay: MIC determination (CLSI), E. coli AG100 A; assay type: cell-based; conditions: MIC class
Experimental: as §1

Steinernema feltiae = assay: Nematicidal activity (viability count), Steinernema feltiae; assay type: in vivo; conditions: IC50 class, tested at 50, 100, 150 and 200 µM, viability at 24 h
Experimental: The compounds were tested for their antifungal and nematicidal properties against the fungi Candida albicans and Saccharomyces cerevisiae, and against the nematode Steinernema feltiae.
The soil nematodes S. feltiae were purchased from Sautter and Stepper GmbH (Ammerbuch, Germany) and stored at 4 °C in the dark. Before each experiment, fresh samples of nematodes were purchased and stored in the fridge upon arrival and used for a maximum of six days. To perform the assay, 200 mg of nematodes was reconstituted in 50 mL of phosphate buffered saline (PBS) (pH = 7.4) to form a homogenous suspension to revive the nematodes. Afterwards, the individual suspensions were allowed to rest at room temperature. The sedimentation was avoided with occasional shaking in moderate light and at room temperature (25 °C) for 30 min. Viability of the nematodes was determined by counting the live and dead nematodes under a light microscope (TR 200, VWR International, Leuven, Belgium) at four-fold magnification. An initial viability value of more than 90 percent was considered necessary to perform the experiments.
Sample solutions were added into the wells of a 96-well plate to achieve at final concentrations of 50,100, 150, and 200 µM. Afterwards, 10 µL of nematode suspension was added to each well and the final volume in each well was adjusted to 100 µL with phosphate buffered saline (PBS) (pH = 7.4). PBS was used in the negative control and ethanol in the positive control. Viability was determined at 0 h and 24 h by counting the live and dead nematodes, whereby 50 µL of lukewarm water (40 °C) were added to each well to stimulate the nematodes for the 24 h reading. Each experiment was performed independently in triplicate and on three different occasions (n = 9).
For the three organisms considered (C. albicans, S. cerevisiae and S. feltiae), the inhibitory concentration 50% (IC50) is defined as the concentration that inhibits the viability of the respective organism to a 50% of the viability determined for the negative control.

Row | SMILES | Antibacterial activity Against S. aureus MRSA 272123 [1] | IC50 [2] [µM] | SI (MRC-5/Colo320) [2] | Antibacterial activity Against S. aureus 25923 ATCC [3] | Antibacterial activity Against E. coli AG100 (Escherichia coli AG100) | Antibacterial activity Against E. coli AG100 A (Escherichia coli AG100 A) | IC50 (Steinernema feltiae) [µM]
1 | N#CC[Se]C(=O)c1ccc(C(=O)[Se]CC#N)cc1 [Compound 18, Se,Se-bis-(cyanomethyl) benzene-1,4-bis-(carboselenoate)] | ** (Moderate antibacterial compounds: 10 µM < MIC ≤ 50 µM) | 1 to 10 | *** (Strongly selective compounds: SI ≥ 6) | *** (Potent antibacterial compounds: 1 µM < MIC ≤ 10 µM) | ** (Moderate antibacterial compounds: 10 µM < MIC ≤ 50 µM) | ** (Moderate antibacterial compounds: 10 µM < MIC ≤ 50 µM) | 10 to 50
2 | CC(=O)C[Se]C(=O)c1cc(C(=O)[Se]CC(C)=O)cc(C(=O)[Se]CC(C)=O)c1 [Compound 24, Se,Se,Se-tris-(2-oxopropyl) benzene-1,3,5-tris-(carboxyselenoate)] | **** (Very potent antibacterial compounds: MIC ≤ 1 µM) | < 1 | * (Slightly selective compounds: 1 ≤ SI < 3) | **** (Very potent antibacterial compounds: MIC ≤ 1 µM) | ** (Moderate antibacterial compounds: 10 µM < MIC ≤ 50 µM) | ** (Moderate antibacterial compounds: 10 µM < MIC ≤ 50 µM) | > 100
3 | N#CC[Se]C(=O)c1cc(C(=O)[Se]CC#N)cc(C(=O)[Se]CC#N)c1 [Compound 20, Se,Se,Se-tris-(cyanomethyl) benzene-1,3,5-tris-(carboxyselenoate)] | – | 1 to 10 | *** (Strongly selective compounds: SI ≥ 6) | – | NA (Not antibacterial compounds: MIC ≥ 100 µM) | NA (Not antibacterial compounds: MIC ≥ 100 µM) | > 100
4 | CC(=O)C[Se]C(=O)c1ccc(C(=O)[Se]CC(C)=O)cc1 [Compound 22, Se,Se-bis-(2-oxopropyl) benzene-1,4-bis-(carboselenoate)] | *** (Potent antibacterial compounds: 1 µM < MIC ≤ 10 µM) | < 1 | * (Slightly selective compounds: 1 ≤ SI < 3) | **** (Very potent antibacterial compounds: MIC ≤ 1 µM) | ** (Moderate antibacterial compounds: 10 µM < MIC ≤ 50 µM) | ** (Moderate antibacterial compounds: 10 µM < MIC ≤ 50 µM) | 50 to 100
5 | CC(=O)C[Se]C(=O)c1cccc(C(=O)[Se]CC(C)=O)c1 [Compound 23, Se,Se-bis-(2-oxopropyl) benzene-1,3-bis-(carboselenoate)] | *** (Potent antibacterial compounds: 1 µM < MIC ≤ 10 µM) | < 1 | * (Slightly selective compounds: 1 ≤ SI < 3) | **** (Very potent antibacterial compounds: MIC ≤ 1 µM) | ** (Moderate antibacterial compounds: 10 µM < MIC ≤ 50 µM) | ** (Moderate antibacterial compounds: 10 µM < MIC ≤ 50 µM) | > 100
6 | N#CC[Se]C(=O)c1cccc(C(=O)[Se]CC#N)c1 [Compound 19, Se,Se-bis-(cyanomethyl)benzene-1,3-bis-(carboselenoate)] | ** (Moderate antibacterial compounds: 10 µM < MIC ≤ 50 µM) | 1 to 10 | *** (Strongly selective compounds: SI ≥ 6) | *** (Potent antibacterial compounds: 1 µM < MIC ≤ 10 µM) | NA (Not antibacterial compounds: MIC ≥ 100 µM) | NA (Not antibacterial compounds: MIC ≥ 100 µM) | 10 to 50
